Data as given in patent US8642633B2, “Di-substituted amides for enhancing glutamatergic synaptic responses” (Cortex Pharmaceutical, Inc., priority 2007, dated 2014).

Key:
AMPA receptor = assay: In vivo electrophysiology: field EPSP amplitude in the dentate gyrus of anesthetized animals; design: species or system rat; conditions: rat, 10mpk i.p.
Method: A. Enhancement of AMPA Receptor Function In Vivo.
Synaptic responses mediated by AMPA receptors are increased according to the method of the invention, using the compounds described herein.
(§1) The electrophysiological effects of the invention compounds were tested in vivo in anesthetized animals according to the following procedures. Animals are maintained under anesthesia by phenobarbital administered using a Hamilton syringe pump. Stimulating and recording electrodes are inserted into the perforant path and dentate gyrus of the hippocampus, respectively. Once electrodes are implanted, a stable baseline of evoked responses are elicited using single monophasic pulses (100 μs pulse duration) delivered at 3/min to the stimulating electrode. Field EPSPs are monitored until a stable baseline is achieved (about 20-30 min), after which a solution of test compound is injected intraperitoneally and evoked field potentials are recorded. Evoked potentials were recorded for approximately 2 h following drug administration or until the amplitude of the field EPSP returns to baseline. In the latter instance, it is common that an iv administration is also carried out with an appropriate dose of the same test compound. Invention compounds were assayed in the in vivo electrophysiology assay described above and data for representative test compounds is shown in column 1 in Table 1.
The electrophysiological effects of invention compounds were tested in vivo in anesthetized animals according to the following procedures.
as §1, with “Animals” for “The electrophysiological effects of the invention compounds were tested in vivo in anesthetized animals according to the following procedures. Animals”, “are” for “were”, “compound.” for “compound. Invention compounds were assayed in the in vivo electrophysiology assay described above and data for representative test compounds is shown in column 1 in Table 1.”

[1] = test system: d-amphetamine stimulated locomotion in mice; assay: Inhibition of d-amphetamine stimulated locomotion; format: in vivo; conditions: Mus musculus, ip, 18 mpk i.p., d-amphetamine 2 mg/kg
Method: B. Behavioral Testing: Inhibition of d-Amphetamine Stimulated Locomotion
The ability of the invention compounds to inhibit d-Amphetamine stimulated locomotor activity was assayed according to the following procedure. Male CD1 mice, 25-30 gm body weight, were brought into the experimental room and allowed at least 30 min of acclimation. Each mouse was placed into the testing enclosure with an infrared beam array that automatically monitors the animal's activity. Mice were habituated in the testing enclosure for 20 min, and then returned to their home cage. Mice were dosed intraperitoneally with test compound in appropriate vehicle 5 minutes before d-Amphetamine injection (2 mpk). Ten minutes after d-Amphetamine injection, mice were tested for locomotor activity for a total of […]. The data was computer collected and expressed as “arbitrary movement units.” All data were analyzed by comparing the groups treated with the test compound to the vehicle control group. The data shown is the % inhibition of hyperactivity induced by acute administration of 2 mg/kg d-amphetamine in mice. The compounds tested produced a statistically significant inhibition of d-amphetamine stimulated locomotion.
Male CD1 mice, 25-30 gm body weight, were brought into the experimental room and allowed at least 30 min of acclimation. Each mouse was placed into the testing enclosure with an infrared beam array that automatically monitors the animal's activity. Mice were habituated in the testing enclosure for 20 min, and then returned to their home cage. Mice were dosed intraperitoneally with test compound in appropriate vehicle 5 minutes before d-Amphetamine injection. Ten minutes after d-Amphetamine injection, mice were tested for locomotor activity for a total of 15 minutes. The data was computer collected and expressed as “arbitrary movement units.” All data were analyzed by comparing the groups treated with the test compound to the vehicle control group.

CN(C(=O)c1ccc2nonc2c1)C1CC=C(F)CC1 (stereo not drawn) [Example 41, N-(4-fluorocyclohex-3-en-1-yl)-N-methyl-[2,1,3]-benzoxadiazole-5-carboxamide]
In vivo Electrophysiology: % increase in the amplitude of the field EPSP in the dentate gyrus of rat (AMPA receptor): 18%
melting point: 117 to 118 °C
inhibition in vivo at 18 mg/kg [1]: 67%

CN(C(=O)c1ccc2nonc2c1)[C@H]1CC[C@](C)(O)CC1 [Example 45, N-(trans-4-hydroxy-4-methylcyclohexyl)-N-methyl-[2,1,3]-benzoxadiazole-5-carboxamide]
In vivo Electrophysiology: % increase in the amplitude of the field EPSP in the dentate gyrus of rat (AMPA receptor): 19%
melting point: 175 to 176 °C
inhibition in vivo at 18 mg/kg [1]: 122%
